From the supplement of paper PMC10307832 come the findings set out here.

Assay in all cases: relative viability (nuclei count vs DMSO), 5 days (fraction); higher = more cells survive
Compound in test [1]: O=C(Nc1cccc(C(F)(F)F)c1)Nc1cc(S(=O)(=O)NC2CC2)ccc1-c1ccsc1 [AGI-6780] + CC1(C)CCC(c2ccc(Cl)cc2)=C(CN2CCN(c3ccc(C(=O)NS(=O)(=O)c4ccc(N[C@H](CCN5CCOCC5)CSc5ccccc5)c(S(=O)(=O)C(F)(F)F)c4)cc3)CC2)C1 [Navitoclax] (partner 0.5 µM)
The method in brief:
(§1)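 Lung cancer cell lines in 1536-well plates got either a single drug or a fixed anchor-drug dose together with five library-drug doses (not always all listed) in √10 steps, by pin tool, on the day after seeding. Nuclei were counted after 5 days, and relative viability is the treated-to-vehicle ratio of nuclei counts. Values are medians of duplicate plates.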

Compound in test [2]: O=C(Nc1cccc(C(F)(F)F)c1)Nc1cc(S(=O)(=O)NC2CC2)ccc1-c1ccsc1 [AGI-6780] + N=C(N)NC(=N)NCCc1ccccc1 [Phenformin] (partner 250 µM)
The method in brief:
as §1

Compound in test [3]: O=C(Nc1cccc(C(F)(F)F)c1)Nc1cc(S(=O)(=O)NC2CC2)ccc1-c1ccsc1 [AGI-6780] + Nc1nc2[nH]cc(CCc3ccc(C(=O)N[C@@H](CCC(=O)O)C(=O)O)cc3)c2c(=O)[nH]1 [Pemetrexed] (partner 0.2 µM)
The method in brief:
as §1

Compound in test [4]: O=C(Nc1cccc(C(F)(F)F)c1)Nc1cc(S(=O)(=O)NC2CC2)ccc1-c1ccsc1 [AGI-6780] + CC(=O)Nc1cccc(-n2c(=O)n(C3CC3)c(=O)c3c(Nc4ccc(I)cc4F)n(C)c(=O)c(C)c32)c1 [Trametinib] (partner 0.02 µM)
In a few lines: as §1

NCI-H2228: the relative viability in test [1] (first compound 0.08 µM) was found to be 0.753; in test [1] (first compound 0.253 µM) it was 1.04; in test [1] (first compound 0.8 µM) it was 0.675; in test [1] (first compound 2.53 µM), 0.856; in test [1] (first compound 8 µM), 1.08; in test [2] (first compound 0.08 µM), 0.341. The relative viability in test [2] (first compound 0.253 µM) was 0.278; in test [2] (first compound 0.8 µM), 0.31; in test [2] (first compound 2.53 µM) it was 0.347; in test [2] (first compound 8 µM), 0.393; in test [3] (first compound 0.08 µM), 0.338; in test [3] (first compound 0.253 µM), 0.343. In addition, the relative viability in test [3] (first compound 0.8 µM) was found to be 0.384; in test [3] (first compound 2.53 µM) it was 0.34; in test [3] (first compound 8 µM) it was 0.391; in test [4] (first compound 0.08 µM) it was 0.447; in test [4] (first compound 0.253 µM), 0.508; in test [4] (first compound 0.8 µM), 0.505. Further, the relative viability came to 0.307 in test [4] (first compound 2.53 µM) and 0.607 in test [4] (first compound 8 µM).

Regarding HOP-62, the relative viability came to 0.974 in test [1] (first compound 0.08 µM); 1.01 in test [1] (first compound 0.253 µM); 1.13 in test [1] (first compound 0.8 µM); 1.11 in test [1] (first compound 2.53 µM); 1.19 in test [1] (first compound 8 µM); 0.684 in test [2] (first compound 0.08 µM). Also, the relative viability was found to be 0.663 in test [2] (first compound 0.253 µM); 0.876 in test [2] (first compound 0.8 µM); 0.689 in test [2] (first compound 2.53 µM); 0.763 in test [2] (first compound 8 µM); 0.336 in test [3] (first compound 0.08 µM); 0.303 in test [3] (first compound 0.253 µM). For the same cell line, the relative viability in test [3] (first compound 0.8 µM) is 0.378; in test [3] (first compound 2.53 µM) it was 0.346; in test [3] (first compound 8 µM), 0.385; in test [4] (first compound 0.08 µM), 0.366; in test [4] (first compound 0.253 µM), 0.321; in test [4] (first compound 0.8 µM), 0.316. The relative viability stood at 0.321 in test [4] (first compound 2.53 µM) and 0.396 in test [4] (first compound 8 µM).

ChaGo-K-1: the relative viability was determined as 0.894 in test [1] (first compound 0.08 µM); 1.25 in test [1] (first compound 0.253 µM); 1.15 in test [1] (first compound 0.8 µM); 0.746 in test [1] (first compound 2.53 µM); 0.992 in test [1] (first compound 8 µM); 0.494 in test [2] (first compound 0.08 µM). Also, the relative viability in test [2] (first compound 0.253 µM) was 0.562; in test [2] (first compound 0.8 µM), 0.503; in test [2] (first compound 2.53 µM), 0.452; in test [2] (first compound 8 µM), 0.543; in test [3] (first compound 0.08 µM) it was 0.26; in test [3] (first compound 0.253 µM), 0.267. Also, the relative viability in test [3] (first compound 0.8 µM) was determined as 0.261; in test [3] (first compound 2.53 µM), 0.255; in test [3] (first compound 8 µM), 0.25; in test [4] (first compound 0.08 µM), 0.876; in test [4] (first compound 0.253 µM) it was 0.799; in test [4] (first compound 0.8 µM), 0.888. Further, the relative viability in test [4] (first compound 2.53 µM) worked out at 0.815; in test [4] (first compound 8 µM) it was 0.871.

For the cell line NCI-H322M, the relative viability in test [1] (first compound 0.08 µM) stood at 1.11; in test [1] (first compound 0.253 µM), 1.14; in test [1] (first compound 0.8 µM), 1.28; in test [1] (first compound 2.53 µM), 1.24; in test [1] (first compound 8 µM), 1.21; in test [2] (first compound 0.08 µM) it was 0.755. Further, the relative viability in test [2] (first compound 0.253 µM) came out at 0.788; in test [2] (first compound 0.8 µM), 0.816; in test [2] (first compound 2.53 µM), 0.808; in test [2] (first compound 8 µM) it was 0.85; in test [3] (first compound 0.253 µM), 0.669; in test [3] (first compound 0.8 µM), 0.622. The relative viability in test [3] (first compound 2.53 µM) was determined as 0.636; in test [3] (first compound 8 µM), 0.585; in test [4] (first compound 0.253 µM), 0.525; in test [4] (first compound 0.8 µM), 0.525; in test [4] (first compound 2.53 µM) it was 0.547; in test [4] (first compound 8 µM) it was 0.499.

Consider HCC-78, for which the relative viability is 0.845 in test [1] (first compound 0.08 µM); 0.789 in test [1] (first compound 0.253 µM); 0.9 in test [1] (first compound 0.8 µM); 0.779 in test [1] (first compound 2.53 µM); 0.801 in test [1] (first compound 8 µM); 0.735 in test [2] (first compound 0.253 µM). The relative viability in test [2] (first compound 0.8 µM) amounted to 0.814; in test [2] (first compound 2.53 µM), 0.716; in test [2] (first compound 8 µM), 0.607; in test [3] (first compound 0.08 µM), 0.957; in test [3] (first compound 0.253 µM), 0.859; in test [3] (first compound 0.8 µM), 0.908. Further, the relative viability in test [3] (first compound 2.53 µM) was found to be 0.85; in test [3] (first compound 8 µM) it was 0.927; in test [4] (first compound 0.08 µM) it was 0.824; in test [4] (first compound 0.253 µM), 0.629; in test [4] (first compound 0.8 µM) it was 0.925; in test [4] (first compound 2.53 µM), 0.924. Moreover, the relative viability in test [4] (first compound 8 µM) worked out at 0.775.
